Measurements taken from US3931299A, “9β-Formyl prostaglandin derivatives” (American Home Products Corporation, priority 1974, dated 1976).

Experiments:
[1] = tested on: bronchoconstricting effects of a standard dose of acetylcholine; assay: bronchodilation in the guinea pig by aerosol inhalation (method of Rosenthale et al.); format: in vivo
From the text: In using the compounds of the invention to produce bronchodilating effects in warm-blooded animals, they may be administered in a variety of dosage forms: oral, injectable, and aerosol inhalation. Aerosol inhalation is a preferred method because of its rapid onset of action, great potency, and specificity of action. The particular dosage to obtain the bronchodilating effect will vary with the particular compound employed, the particular animal involved, and the degree of bronchodilation desired. In the guinea pig, by aerosol inhalation, the dose to produce bronchodilation is from about 0.15 micrograms to about 100 micrograms, and preferably from about 0.15 to about 50 micrograms. The bronchodilation produced upon aerosol inhalation can be observed by the method of Rosenthale et al., J. Pharmacol. Exp. Ther., 178, 541 (1971).
Using this procedure, the following results were obtained.

[2] = hypotension in the anesthetized dog by the intravenous route; format: in vivo
Protocol: In the use of the compounds of the invention to produce hypotensive effects in warm-blooded animals, administration by the injectable route is preferred, preferably the intravenous route.
Thus in the anesthetized dog by the intravenous route the dose to produce hypotension is from about 1 μg/kg. to about 200 μg/kg. and preferably from about 10 μg/kg. to about 100 μg/kg.
Using this procedure the following results were obtained.

| SMILES | Percent inhibition of the bronchoconstricting effects of a standard dose of acetylcholine ([1]; dose 1.5 μg) | Δb.p. ([2]; dose 10 μg/kg.) | Δb.p. ([2]; dose 100 μg/kg.) | Percent inhibition of the bronchoconstricting effects of a standard dose of acetylcholine ([1]; dose 0.15 μg) |
| --- | --- | --- | --- | --- |
| CCCCC[C@H](O)/C=C/[C@H]1CC[C@@H](C=O)[C@@H]1C/C=C\CCCC(=O)O [7-[5β-Formyl-2β-((3S)-3-Hydroxy-Trans-1-Octenyl)-1α-Cyclopentyl]-Cis-5-Heptenoic Acid] | 55% | -17 mm. Hg | – | – |
| C=C1CC[C@H](/C=C/[C@@H](O)CCCCC)[C@H]1CCCCCCC(=O)O [2β-[(3S)-3-Hydroxy-Trans-1-Octenyl]-5-Methylene-1α-Cyclopentaneheptanoic Acid] | – | – | -32 mm. Hg | – |
| CCCCC[C@H](O)/C=C/[C@H]1CC[C@@H](CO)[C@@H]1C/C=C\CCCC(=O)O [7-[5β-Hydroxymethyl-2β-((3S)-3-Hydroxy-Trans-1-Octenyl)-1α-Cyclopentyl]-Cis-5-Heptenoic Acid] | – | – | -27 mm. Hg | – |
| C=C1CC[C@H](/C=C/[C@@H](O)CCCCC)[C@H]1C/C=C\CCCC(=O)O [7-[2β-((3S)-3-Hydroxy-Trans-1-Octenyl)-5-Methylene-1α-Cyclopentyl]-Cis-5-Heptenoic Acid] | 46% | – | – | – |
| CCCCC[C@H](O)/C=C/[C@H]1CC[C@@H](C=O)[C@@H]1CCCCCCC(=O)O [5β-Formyl-2β-[(3S)-3-Hydroxy-Trans-1-Octenyl]-1α-Cyclopentane Heptanoic Acid] | – | – | -27 mm. Hg | 36% |
